Laboratory results taken from patent US6620419B1, “Cosmetic or dermopharmaceutical use of peptides for healing, hydrating and improving skin appearance during natural or induced ageing (heliodermia, pollution)” (Sederma, priority 1998, dated 2003).
Non-standard residues stand in square brackets, D forms with d. No end group written: not given here. *: point of attachment. Palmitoyl = CCCCCCCCCCCCCCCC(=O)*; Sar = CNCC(=O)O

Assays:
Type in all cases: cell-based
explants of human skin [1] = test: Increase in synthesis of collagen in vitro: 3H-proline incorporation in human skin explants; conditions: for increase of incorporation of 3H-proline (synthesis of collagen) relative to blank tests: 72 hours, human skin explants
Procedure: The method chosen is a modification of that described by Augustin C. et al. (Skin Pharmacol. (1997); 10:63-70) in that we have used explants of human skin instead of human pulmonary fibroblasts, so as to render our results directly usable in cosmetology. These explants, from abdominal or mammary plastic surgery, are incubated for 72 hours in the presence ^3H-proline, with peptide N-Palmitoyl-[…], to three final concentrations in the culture medium (2.10^-4%, 4.10^-4% and 8.10^-4%; namely, 2, 4 and 8 ppm). The explants are then washed, the […] of each explant are separated, homogenized and lysed. The measurement of the incorporation of ^3H-proline is thus carried out in each lysat. Tests were done in triplicate. In parallel, negative controls are carried out under the same conditions but in the absence of the peptide. Positive controls, themselves, are carried out by replacing the peptide tested by vitamin C.

explants of human skin [2] = test: Increase of the synthesis of glycosaminoglycans in vitro: 3H-glucosamine incorporation in human skin explants; conditions: for increase of incorporation of 3H-glucosamine (synthesis of GAGs) relative to blank experiments: 72 hours, human skin explants
Procedure: The method chosen is a modification of that described by Augustin C. et al. (Skin Pharmacol. (1997); 10:63-70) in that we have used explants of human skin instead of human pulmonary fibroblasts, so as to render our results directly usable in cosmetology.
These explants, from abdominal or mammary plastic surgery, are incubated for 72 hours in the presence ^3H-proline, with peptide N-Palmitoyl-Sarcosine-Thr-Thr-Lys-Ser, to three final concentrations in the culture medium (2.10^−4%, 4.10^−4% and 8.10^−4%; namely, 2, 4 and 8 ppm). The explants are then washed, the derma and epiderma of each explant are separated, homogenized and lysed. The measurement of the incorporation of ^3H-proline is thus carried out in each lysat. Tests were done in triplicate.
In parallel, negative controls are carried out under the same conditions but in the absence of the peptide. Positive controls, themselves, are carried out by replacing the peptide tested by vitamin C.
The same protocol as in Example No. 3 is used, except that, on the one hand, the incubation is carried out in the presence of ^3H-glucosamine instead of ^3H-proline and vitamin A acid is used as reference product in place of vitamin C.

human fibroblasts = test: Cutaneous toning activity in vitro: stimulation of protein synthesis, colorimetry (Biuret reaction); conditions: 24 hours, per 1000 cells
Procedure: For 24 hours, human fibroblasts from the same cellular culture are placed in the presence of the standard culture medium, supplemented or not for controls, with given concentrations of peptide (2, 4 and 8 ppm).
The stimulation of the synthesis of proteins is evaluated by colorimetry (so-called Biuret reaction).
To standardize the results, the quantity of proteins measured is expressed for 1000 cells present in the test.

## O=C1O[C@H]([C@@H](O)CO)C(O)=C1O [ascorbic acid, reference compound]
Explants of human skin [1]; reference product at 0.5mM, same conditions
  increase of collagen synthesis: 61.4 (±5) %

## CC1=C(/C=C/C(C)=C/C=C/C(C)=C/C(=O)O)C(C)(C)CCC1 [vitamin A acid, reference compound]
Explants of human skin [2]; reference product at 100 nM, same conditions
  increase of synthesis of GAGs: 45.3 (±2) %

## KTTKSA
Explants of human skin [2]; 2 ppm peptide
  increase of incorporation of 3H-glucosamine (synthesis of GAGs) relative to blank experiments: 24.5 (±3) %
Explants of human skin [2]; 4 ppm peptide
  increase of incorporation of 3H-glucosamine (synthesis of GAGs) relative to blank experiments: 48.8 (±3) %
Explants of human skin [2]; 8 ppm peptide
  increase of incorporation of 3H-glucosamine (synthesis of GAGs) relative to blank experiments: 67.9 (±5) %

## N-Palmitoyl-Lys-Thr-Thr-Lys-Ser (Palmitoyl-KTTKS) [N-palmytoyl-Lys-Thr-Thr-Lys-Ser]
Human fibroblasts; 2 ppm peptide
  increase in the concentration of proteins relative to control experiments: 14.7 (±1.0) %
Human fibroblasts; 4 ppm peptide
  increase in the concentration of proteins relative to control experiments: 21.0(±2.4) %
Human fibroblasts; 8 ppm peptide
  increase in the concentration of proteins relative to control experiments: 44.8(±1.0) %

## N-Palmitoyl-Sarcosine-Thr-Thr-Lys-Ser (Palmitoyl-[Sar]TTKS)
Explants of human skin [1]; 2 ppm peptide
  increase of incorporation of 3H-proline (synthesis of collagen) relative to blank tests: 30.2 (±2) %
Explants of human skin [1]; 4 ppm peptide
  increase of incorporation of 3H-proline (synthesis of collagen) relative to blank tests: 54.7 (±5) %
Explants of human skin [1]; 8 ppm peptide
  increase of incorporation of 3H-proline (synthesis of collagen) relative to blank tests: 90.9 (±5) %
